Measurements reported in publication doi:10.1101/2025.07.20.665728 (bioRxiv, 2025).

Columns and labels:
Assay type in all cases: cell-based
[1] = tested on: SKW-3 cells expressing MBV28 (TRAV1-2/TRBV28) TCR; assay: MAIT cell activation assay, SKW-3 MBV28 TCR co-cultured with C1R.MR1; details: SKW-3 MBV28, ligand alone
Method: (§1) Next, we explored whether RF catabolites could activate SKW-3 cells expressing two different MAIT TCRs. Distinct responses of T cells expressing TCRs with varying TRBV chain usage reinforces the role of Vβ in modulating MAIT responses to various ligands ([Chancellor et al., 2023]; [Gherardin et al., 2016]; [Seneviratna et al., 2022]).The surface expression of CD69 was measured as a marker for activation of cells expressing the AF-7 (TRAV1-2/TRBV6-1) or MBV28 (TRAV1-2/TRBV28) TCRs after co-culture with C1R.MR1 cells and the ligands.
(§2) C1R.MR1 cells (1 x 10^5) were initially stained with CTV for 15 minutes and then incubated with RF catabolites for 20 h. […] Cells were subsequently stained with PE-Cy7-conjugated anti-CD69 (BD; 1:100) and PE-labelled anti-MR1 (26.5 clone; BD; 1:100), before analysis on LSRFortessa (BD Biosciences) flow cytometer. Activation of SKW-3-MAIT cells was reflected by the cell-surface CD69 expression.

MAIT cells in human PBMC [2] = assay: MAIT cell proliferation in CTV-labeled PBMCs; details: day 7, 5-OP-RU 10 μM, RF ligands 100 μM
MAIT cells in human PBMC [3] = assay: Primary MAIT activation (CD69) in PBMCs; details: 16 h, ligand alone
[4] = tested on: SKW-3 cells expressing AF-7 (TRAV1-2/TRBV6-1) TCR; assay: MAIT cell activation assay, SKW-3 AF-7 TCR co-cultured with C1R.MR1; details: SKW-3 AF-7, ligand alone
Method: as §1, §2

C1R.MR1^R9H cells = assay: Cell surface MR1 R9H quantification, C1R.MR1^R9H
From the text: We then tested the effect of the RF catabolites on the expression of two mutant versions of MR1 termed MR1^R9H ([Howson et al., 2020]) and MR1^K43A ([Reantragoon et al., 2013]). First, we tested the MR1^R9H mutant ([Howson et al., 2020]) which represents a rare, natural human polymorph. […] When C1R. […] Next, we tested sought to understand how the previously characterised Lys43A mutation affects ligand binding. […] While this is in line with the ability of these ligands to bind MR1, the reason for MR1^K43A cell surface accumulation is less clear. The most likely explanation is that these ligands bind ER-resident MR1^K43A, in line with our data using wild-type MR1; however, because the K43A mutation results in spontaneous MR1 surface egress, the presence of these stabilising ligands promotes enhanced trafficking and/or retention at the cell surface. We cannot rule out however that the ligands may also bind directly to surface MR1^K43A and slow down the recycling from cell surface.
The level of MR1 expressed on the cell surface was measured after the exposure to the investigated ligands as previously described ([Awad et al., 2020a]; [Wang et al., 2022a]). […] The PE fluorescence intensity reflects the surface MR1 level. The data was acquired with an LSRFortessa X-20 (BD Biosciences) and Diva software (BD Biosciences) and analyzed using FlowJo software (BD Biosciences).

C1R.MR1 cells [5] = assay: Endo H treatment and western blot of intracellular MR1; details: C1R.MR1, 16 h; RF and catabolites 100 μM, Ac-6-FP 10 μM
Method: The downregulation of MR1 on the cell surface by the RF catabolites could be due to the depletion of the intracellular ER-resident MR1 pool, or by retention of MR1 in the ER, as shown for the DB28 ligand ([Salio et al., 2020]). To investigate this, C1R.MR1 cells were treated for 16 h with 100 μM of RF or RF catabolites, conditions which induce MR1 downregulation (Fig. 3A). Cells were lysed, and treated with endoglycosidase (Endo) H, to distinguish molecules that remain within the ER from those that have trafficked to the cell surface ([McWilliam et al., 2016]), then MR1 levels were assessed by immunoblotting (Fig. 3A).
Figure 3. […] S, Endo H–susceptible MR1; R, Endo H–resistant MR1. The Endo H–susceptible MR1 and Endo H–resistant MR1 fractions were quantified in at least two independent experiments. (b) Intracellular total MR1 level was also measured in C1R.MR1 cells by flow cytometry after treating the cells with the indicated ligands (100 μM) for 16h followed by permeabilization and staining with anti-MR1-PE (8F2.F9). Shown are the overlay histograms (top) and a bar chart depicting the geometric mean fluorescence intensity (gMFI) fold change of intracellular MR1 level (bottom) from three independent experiments performed in duplicates, with standard error (SEM) represented by the error bars. […]

C1R.MR1 cells [6] = assay: Intracellular total folded MR1 by flow cytometry (8F2.F9); details: C1R.MR1, 100 μM, 16 h

Compound | CD69 surface expression (activation) [1] | MAIT cell proliferation (MAIT cells in human PBMC [2]) | CD69 expression on gated MAIT cells (MAIT cells in human PBMC [3]) | CD69 surface expression (activation) [4] | MR1^R9H surface level (C1R.MR1^R9H cells) | Endo H-resistant MR1 (C1R.MR1 cells [5]) | total level of folded MR1 (intracellular staining with 8F2.F9) (C1R.MR1 cells [6])
CC(=O)C=Nc1c(NC[C@H](O)[C@H](O)[C@H](O)CO)[nH]c(=O)[nH]c1=O [5-OP-RU, 5-(2-oxopropylideneamino)-6-D-ribitylaminouracil, reference compound] | induced strong activation | significantly proliferated | induced robust CD69 upregulation | induced strong activation |  |  | 
Nc1nc2ncc(C=O)nc2c(=O)[nH]1 [6-FP, 6-formylpterin, reference compound] | moderately reduced basal CD69 levels |  |  | moderately reduced basal CD69 levels |  |  | 
CC(=O)Nc1nc2ncc(C=O)nc2c(=O)[nH]1 [Ac-6-FP, acetyl-6-FP, reference compound] |  |  |  |  | significantly increased | increase in MR1 of a higher molecular weight | significantly increased
